Results as given in the NIST ThermoML archive (doi:10.1016/j.fluid.2004.09.013).

Conditions: for mass density: Fluid (supercritical or subcritical phases), Vibrating tube method

C=C(C)C [2-methylpropene]
Conditions	Critical density [kg/m3]	mass density [kg/m3]
458.25 K, 5017 kPa	–	125.47
458.25 K, 9993 kPa	–	351.66
458.25 K, 14983 kPa	–	408.65
458.25 K, 19987 kPa	–	439.63
458.25 K, 25004 kPa	–	461.27
458.25 K, 29988 kPa	–	478.03
458.25 K, 34987 kPa	–	491.88
463.25 K, 5016 kPa	–	119.04
463.25 K, 9981 kPa	–	338.41
463.25 K, 14994 kPa	–	400.72
463.25 K, 19983 kPa	–	433.24
463.25 K, 25001 kPa	–	455.8
463.25 K, 29987 kPa	–	473.13
463.25 K, 34998 kPa	–	487.42
463.25 K, 39991 kPa	–	499.76
468.25 K, 5015 kPa	–	113.61
468.25 K, 9993 kPa	–	325.38
468.25 K, 14991 kPa	–	392.57
468.25 K, 19999 kPa	–	426.94
468.25 K, 24992 kPa	–	450.29
468.25 K, 29998 kPa	–	468.26
468.25 K, 34985 kPa	–	482.91
473.25 K, 5018 kPa	–	109.13
473.25 K, 9986 kPa	–	311.87
473.25 K, 14992 kPa	–	384.37
473.25 K, 20001 kPa	–	420.52
473.25 K, 24988 kPa	–	444.78
473.25 K, 29996 kPa	–	463.37
473.25 K, 34999 kPa	–	478.46
478.25 K, 5019 kPa	–	105.12
478.25 K, 9988 kPa	–	298.62
478.25 K, 14996 kPa	–	376.12
478.25 K, 19999 kPa	–	414.08
478.25 K, 24987 kPa	–	439.29
478.25 K, 30005 kPa	–	458.51
478.25 K, 34997 kPa	–	474
483.25 K, 5019 kPa	–	101.57
483.25 K, 9988 kPa	–	285.6
483.25 K, 14984 kPa	–	367.69
483.25 K, 19990 kPa	–	407.57
483.25 K, 24996 kPa	–	433.89
483.25 K, 29989 kPa	–	453.63
483.25 K, 35003 kPa	–	469.59
488.24 K, 4981 kPa	–	97.35
488.24 K, 20000 kPa	–	401.24
488.25 K, 9987 kPa	–	273.08
488.25 K, 14983 kPa	–	359.4
488.25 K, 24997 kPa	–	428.38
488.25 K, 30002 kPa	–	448.75
488.25 K, 35005 kPa	–	465.15
493.24 K, 4981 kPa	–	94.56
493.24 K, 9988 kPa	–	261.21
493.24 K, 14986 kPa	–	351.12
493.24 K, 19989 kPa	–	394.84
493.24 K, 24992 kPa	–	422.89
493.24 K, 30006 kPa	–	443.91
493.24 K, 35002 kPa	–	460.71
498.24 K, 5019 kPa	–	92.91
498.24 K, 19995 kPa	–	387.94
498.24 K, 30000 kPa	–	439.07
498.25 K, 9984 kPa	–	249.88
498.25 K, 14995 kPa	–	342.92
498.25 K, 24992 kPa	–	417.4
498.25 K, 34999 kPa	–	456.28
503.24 K, 4997 kPa	–	90.01
503.24 K, 9991 kPa	–	239.72
503.24 K, 14990 kPa	–	334.64
503.24 K, 19984 kPa	–	381.57
503.24 K, 24988 kPa	–	411.94
503.24 K, 30005 kPa	–	434.24
503.24 K, 34991 kPa	–	451.87
503.24 K, 39995 kPa	–	466.57
508.24 K, 5016 kPa	–	88.26
508.24 K, 9990 kPa	–	230.13
508.24 K, 14990 kPa	–	326.56
508.24 K, 19994 kPa	–	375.29
508.24 K, 24991 kPa	–	406.52
508.24 K, 30000 kPa	–	429.41
508.24 K, 34996 kPa	–	447.5
508.24 K, 39992 kPa	–	462.51
513.24 K, 5016 kPa	–	86.21
513.24 K, 9990 kPa	–	221.29
513.24 K, 14992 kPa	–	318.59
513.24 K, 19996 kPa	–	368.96
513.24 K, 24989 kPa	–	401.13
513.24 K, 30003 kPa	–	424.62
513.24 K, 35008 kPa	–	443.17
513.24 K, 39996 kPa	–	458.53
518.23 K, 5016 kPa	–	84.36
518.24 K, 9992 kPa	–	213.29
518.24 K, 14986 kPa	–	310.73
518.24 K, 19995 kPa	–	362.67
518.24 K, 24992 kPa	–	395.78
518.24 K, 29993 kPa	–	419.86
518.24 K, 34991 kPa	–	438.82
518.24 K, 39999 kPa	–	454.51
523.23 K, 5019 kPa	–	82.65
523.23 K, 9982 kPa	–	205.67
523.23 K, 14990 kPa	–	303.2
523.23 K, 19986 kPa	–	356.38
523.23 K, 24989 kPa	–	390.45
523.23 K, 29998 kPa	–	415.17
523.23 K, 39987 kPa	–	450.55
523.24 K, 34992 kPa	–	434.55
Liquid, visual observation in a variable volume cell:FP	233.97	–

Liquid
Conditions	Critical pressure [kPa]	Critical temperature [K]
–	4009.8	418.09
